Measurements published in PubChem BioAssay (NCI).
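Exposure lasted 48 hours, with cells grown in 96-well plates and compounds tested at five concentrations. The concentration for full growth arrest is given as TGI.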

Legend:
Assay in all cases: NCI tumour cell line growth inhibition, 48 h
786-0 renal = tested on: 786-0 renal
COLO 205 colon = tested on: COLO 205 colon
NCI-H226 lung = tested on: NCI-H226 lung
OVCAR-4 ovarian = tested on: OVCAR-4 ovarian
OVCAR-8 ovarian = tested on: OVCAR-8 ovarian
RPMI-8226 leukemia = tested on: RPMI-8226 leukemia
SK-MEL-5 melanoma = tested on: SK-MEL-5 melanoma
CAKI-1 renal = tested on: CAKI-1 renal
OVCAR-3 ovarian = tested on: OVCAR-3 ovarian
TK-10 renal = tested on: TK-10 renal
MCF7 breast = tested on: MCF7 breast
NCI/ADR-RES ovarian = tested on: NCI/ADR-RES ovarian

Compound: O=C1c2ccccc2N2OC3(N4CCOCC4)CCCC3C12c1ccccc1 (stereo not drawn)
- TGI (786-0 renal): > 100 µM
- TGI (COLO 205 colon): > 100 µM
- TGI (NCI-H226 lung): > 100 µM
- TGI (OVCAR-4 ovarian): > 100 µM
- TGI (OVCAR-8 ovarian): > 100 µM
- TGI (RPMI-8226 leukemia): > 100 µM
- TGI (SK-MEL-5 melanoma): > 100 µM

Compound: CC(=O)OC1COC(N2CCc3cc([N+](=O)[O-])ccc32)C(OC(C)=O)C1OC(C)=O (stereo not drawn)
- TGI (786-0 renal): > 100 µM
- TGI (CAKI-1 renal): > 100 µM
- TGI (COLO 205 colon): > 100 µM
- TGI (NCI-H226 lung): > 100 µM
- TGI (OVCAR-3 ovarian): > 100 µM
- TGI (OVCAR-4 ovarian): > 100 µM
- TGI (OVCAR-8 ovarian): > 100 µM
- TGI (RPMI-8226 leukemia): > 100 µM
- TGI (SK-MEL-5 melanoma): > 100 µM
- TGI (TK-10 renal): > 100 µM

Compound: COC(=O)/C=C/c1ccc(OP(=O)(O)O)c(OC)c1
- TGI (786-0 renal): > 100 µM
- TGI (CAKI-1 renal): > 100 µM
- TGI (COLO 205 colon): > 100 µM
- TGI (MCF7 breast): > 100 µM
- TGI (NCI-H226 lung): > 100 µM
- TGI (OVCAR-3 ovarian): > 100 µM
- TGI (OVCAR-4 ovarian): > 100 µM
- TGI (OVCAR-8 ovarian): > 100 µM
- TGI (RPMI-8226 leukemia): > 100 µM
- TGI (SK-MEL-5 melanoma): > 100 µM
- TGI (TK-10 renal): > 100 µM

Compound: Cc1cc(O)c(/C=N/C(N)=S)c(=O)o1
- TGI (786-0 renal): > 100 µM
- TGI (CAKI-1 renal): > 100 µM
- TGI (COLO 205 colon): > 100 µM
- TGI (MCF7 breast): > 100 µM
- TGI (NCI-H226 lung): > 100 µM
- TGI (NCI/ADR-RES ovarian): > 100 µM
- TGI (OVCAR-3 ovarian): > 100 µM
- TGI (OVCAR-4 ovarian): > 100 µM
- TGI (OVCAR-8 ovarian): > 100 µM
- TGI (SK-MEL-5 melanoma): > 100 µM
- TGI (TK-10 renal): 90.5 µM

Compound: C1CCC(N=C2N(C3CCCCC3)C(=NC3CCCCC3)N2C2CCCCC2)CC1
- TGI (786-0 renal): > 100 µM
- TGI (COLO 205 colon): > 100 µM
- TGI (OVCAR-3 ovarian): > 100 µM
- TGI (OVCAR-4 ovarian): > 100 µM
- TGI (OVCAR-8 ovarian): > 100 µM
- TGI (RPMI-8226 leukemia): > 100 µM
- TGI (SK-MEL-5 melanoma): > 100 µM
- TGI (TK-10 renal): > 100 µM

Compound: CN1CCOC(C(NC(=O)c2ccccc2)c2ccccc2)C1=O (stereo not drawn)
- TGI (786-0 renal): > 100 µM
- TGI (CAKI-1 renal): > 100 µM
- TGI (COLO 205 colon): > 100 µM
- TGI (NCI-H226 lung): > 100 µM
- TGI (OVCAR-3 ovarian): > 100 µM
- TGI (OVCAR-4 ovarian): > 100 µM
- TGI (OVCAR-8 ovarian): > 100 µM
- TGI (RPMI-8226 leukemia): > 100 µM
- TGI (SK-MEL-5 melanoma): > 100 µM
- TGI (TK-10 renal): > 100 µM

Compound: COc1ccc(/C=C2\C(=O)N(NC(C)=O)c3ccccc32)cc1
- TGI (786-0 renal): > 100 µM
- TGI (CAKI-1 renal): > 100 µM
- TGI (COLO 205 colon): > 100 µM
- TGI (NCI-H226 lung): > 100 µM
- TGI (OVCAR-3 ovarian): > 100 µM
- TGI (OVCAR-4 ovarian): > 100 µM
- TGI (OVCAR-8 ovarian): > 100 µM
- TGI (RPMI-8226 leukemia): > 100 µM
- TGI (SK-MEL-5 melanoma): > 100 µM
- TGI (TK-10 renal): > 100 µM

Compound: NNC(=O)C(=O)NN=C(C(Cl)(Cl)CO)C(Cl)(Cl)CO
- TGI (786-0 renal): > 100 µM
- TGI (CAKI-1 renal): 97.4 µM
- TGI (COLO 205 colon): > 100 µM
- TGI (NCI-H226 lung): > 100 µM
- TGI (OVCAR-3 ovarian): 68 µM
- TGI (OVCAR-4 ovarian): > 100 µM
- TGI (OVCAR-8 ovarian): 57.9 µM
- TGI (RPMI-8226 leukemia): > 100 µM
- TGI (SK-MEL-5 melanoma): > 100 µM
- TGI (TK-10 renal): > 100 µM

Compound: CC(N)(CC(O)(C(F)(F)Cl)C(F)(F)Cl)C(=O)O (stereo not drawn)
- TGI (786-0 renal): > 10 µM
- TGI (CAKI-1 renal): > 10 µM
- TGI (COLO 205 colon): > 10 µM
- TGI (MCF7 breast): > 10 µM
- TGI (NCI-H226 lung): > 10 µM
- TGI (NCI/ADR-RES ovarian): > 10 µM
- TGI (OVCAR-3 ovarian): > 10 µM
- TGI (OVCAR-4 ovarian): > 10 µM
- TGI (OVCAR-8 ovarian): > 10 µM
- TGI (SK-MEL-5 melanoma): > 10 µM
- TGI (TK-10 renal): > 10 µM

Compound: CC(=O)c1ccc(N=NN2CCCC2)cc1
- TGI (786-0 renal): > 100 µM
- TGI (CAKI-1 renal): > 100 µM
- TGI (COLO 205 colon): > 100 µM
- TGI (MCF7 breast): > 100 µM
- TGI (NCI-H226 lung): > 100 µM
- TGI (NCI/ADR-RES ovarian): > 100 µM
- TGI (OVCAR-3 ovarian): > 100 µM
- TGI (OVCAR-4 ovarian): > 100 µM
- TGI (OVCAR-8 ovarian): > 100 µM
- TGI (SK-MEL-5 melanoma): > 100 µM
- TGI (TK-10 renal): > 100 µM

Compound: NNc1nnc(CCCCCCCCc2nnc(NN)n2N)n1N
- TGI (786-0 renal): > 100 µM
- TGI (CAKI-1 renal): > 100 µM
- TGI (COLO 205 colon): > 100 µM
- TGI (MCF7 breast): > 100 µM
- TGI (NCI-H226 lung): > 100 µM
- TGI (NCI/ADR-RES ovarian): > 100 µM
- TGI (OVCAR-4 ovarian): > 100 µM
- TGI (OVCAR-8 ovarian): 76.7 µM
- TGI (SK-MEL-5 melanoma): > 100 µM
- TGI (TK-10 renal): > 100 µM

Compound: O=c1c(-c2ccccc2)nnc2n(Cc3ccccc3)c3ccccc3n12
- TGI (786-0 renal): > 100 µM
- TGI (CAKI-1 renal): > 100 µM
- TGI (COLO 205 colon): > 100 µM
- TGI (MCF7 breast): > 100 µM
- TGI (NCI-H226 lung): > 100 µM
- TGI (NCI/ADR-RES ovarian): > 100 µM
- TGI (OVCAR-4 ovarian): > 100 µM
- TGI (OVCAR-8 ovarian): > 100 µM
- TGI (SK-MEL-5 melanoma): > 100 µM
- TGI (TK-10 renal): > 100 µM

Compound: O=[N+]([O-])c1ccc(/C=N/Nc2nc3ccccc3[nH]2)o1
- TGI (786-0 renal): > 100 µM
- TGI (CAKI-1 renal): 28.7 µM
- TGI (COLO 205 colon): 23 µM
- TGI (NCI-H226 lung): 55.5 µM
- TGI (NCI/ADR-RES ovarian): > 100 µM
- TGI (OVCAR-3 ovarian): 28.1 µM
- TGI (OVCAR-4 ovarian): 21.6 µM
- TGI (OVCAR-8 ovarian): 38 µM
- TGI (RPMI-8226 leukemia): 15.3 µM
- TGI (SK-MEL-5 melanoma): 14.3 µM
- TGI (TK-10 renal): 50 µM

Compound: C1CSCCSCCCS[C@@H]2CCCCC2SC1 (stereo partly drawn)
- TGI (786-0 renal): > 100 µM
- TGI (CAKI-1 renal): > 100 µM
- TGI (COLO 205 colon): > 100 µM
- TGI (NCI-H226 lung): > 100 µM
- TGI (OVCAR-3 ovarian): > 100 µM
- TGI (OVCAR-4 ovarian): > 100 µM
- TGI (OVCAR-8 ovarian): > 100 µM
- TGI (RPMI-8226 leukemia): 52.6 µM
- TGI (SK-MEL-5 melanoma): > 100 µM
- TGI (TK-10 renal): > 100 µM

Compound: O=C(c1ccccc1)C1(Br)S(=O)(=O)OCCOS1(=O)=O
- TGI (786-0 renal): > 100 µM
- TGI (COLO 205 colon): > 100 µM
- TGI (NCI-H226 lung): > 100 µM
- TGI (OVCAR-3 ovarian): > 100 µM
- TGI (OVCAR-4 ovarian): > 100 µM
- TGI (OVCAR-8 ovarian): > 100 µM
- TGI (RPMI-8226 leukemia): > 100 µM
- TGI (SK-MEL-5 melanoma): > 100 µM
- TGI (TK-10 renal): > 100 µM

Compound: CCOC(=O)C1S(=O)(=O)OCCOS1(=O)=O
- TGI (786-0 renal): > 100 µM
- TGI (CAKI-1 renal): > 100 µM
- TGI (COLO 205 colon): > 100 µM
- TGI (OVCAR-3 ovarian): > 100 µM
- TGI (OVCAR-4 ovarian): > 100 µM
- TGI (OVCAR-8 ovarian): > 100 µM
- TGI (RPMI-8226 leukemia): > 100 µM
- TGI (SK-MEL-5 melanoma): > 100 µM
- TGI (TK-10 renal): > 100 µM

Compound: CCOC(=O)C1(C/C=C\CBr)CCCC1=O (stereo not drawn)
- TGI (786-0 renal): > 100 µM
- TGI (CAKI-1 renal): > 100 µM
- TGI (COLO 205 colon): > 100 µM
- TGI (MCF7 breast): 55.2 µM
- TGI (NCI-H226 lung): 88.6 µM
- TGI (NCI/ADR-RES ovarian): 57.2 µM
- TGI (OVCAR-4 ovarian): > 100 µM
- TGI (OVCAR-8 ovarian): > 100 µM
- TGI (SK-MEL-5 melanoma): > 100 µM
- TGI (TK-10 renal): 39 µM
